Key:
[1] = Trough plasma concentration of compound on day 3 (LC-MS) in the piroxicam-accelerated colitis study; format: in vivo, mice; settings: trough after the 3rd day of dosing, Compound 1 90 mg/kg SC BID, Compound 2 30 mg/kg SC QD, FIG. 1
From the text: (§1) The mice used were female 6 week old FVBMDR1a(+/+) and FVBMDR1a(−/−). Mice were normalized for body weight (BW) upon reaching 7 weeks of age, at which time their diet was switched to powdered chow containing piroxicam for a total of 10 days. BW and diarrhea score was monitored for 21 days (including the 10 days of piroxicam feeding). Blood was taken for trough compound levels on day 3 and at takedown. Rat IgG levels (anti-IL23 or isotype-matched control) were quantitated by ELISA on terminal blood draw. At takedown, colons were photographed and weight/length ratio calculated. Two colons from each group were formaldehyde fixed for future pathology assessment and disease scoring. Remaining colons from each group were dissociated for flow cytometry analysis of infiltrating immune cells.
Compound 1 was dosed at 90 mg/kg in 10% Cremophor-EL, SC, BID, and Compound 2 was dosed at 30 mg/kg in 1% HPMC, SC, QD. Vehicle 1 was 10% Cremophor-EL and was administered SC, BID. Vehicle 2 was 1% HPMC administered SC, QD. Anti-mouse IL-23 Clone G23-8 (Rat IgG1) was dosed at 300 μg/mouse, QD/QOD; Isotype-matched control Clone HRPN (Rat IgG1) was dosed at 300 μg/mouse, QD/QOD.
Blood was taken at trough from all Compound 1- and Compound 2-dosed mice, and plasma analyzed by Liquid Chromatography-Mass Spectroscopy to determine the concentration. Trough blood was taken after the 3rd day of dosing (FIG. 1).

[2] = test system: FVBMDR1a(−/−) mice; assay: 21 Day Piroxicam-Accelerated MDR1a−/− Model Of Colitis: colon weight-to-length ratio; format: in vivo; settings: combined therapy with anti-IL-23; only the combined therapy significantly improved the W:L ratio
From the text: Mice of the FVB strain lacking a functional MDR1 gene (also known as ABCB1, P-gp or CD243) develop a spontaneous infammatory bowel disease. This disease can be accelerated by adding the drug piroxicam to their food. FVB mice bearing a functional MDR1 gene are resistant to this disease.
Piroxicam is included in the mouse food for ten days, and the health of the mouse is monitored for a total of 21 days both during and after the piroxicam feeding. Symptoms monitored during this time include severity of diarrhea and changes in body weight.
The colon inflammation manifests itself as a thickening of the colon wall and shortening of the colon itself. The severity of the disease can thus be assessed via the ratio of the colon's weight to its length.
as §1, with “Two colons from each group were formaldehyde fixed for future pathology assessment and disease scoring. Remaining colons from each group were dissociated for flow cytometry analysis of infiltrating immune cells.” left out

SMILES	Trough plasma concentration vs minimal concentration established for 98% receptor coverage [1]	synergy with anti-IL-23 to improve colon inflammation (W:L ratio) [2]
CC(C)(C)c1ccc(S(=O)(=O)Nc2ccc(Cl)cc2C(=O)c2cc[n+]([O-])cc2)cc1 [Compound 1]	met or exceeded the minimal concentration established for 98% receptor coverage	synergized
Cc1cc(NS(=O)(=O)c2ccc(C(C)(C)C)c(F)c2)n(-c2cccc3nc(N)ccc23)n1 [Compound 2]	met or exceeded the minimal concentration established for 98% receptor coverage	synergized
